# Source: PMC8041284, “Tunable Methacrylamides for Covalent Ligand Directed Release Chemistry” (Journal of the American Chemical Society, 2021)
# Biological target: BTK (Homo sapiens, UniProt Q06187)
# Test: biochemical
# Settings: read-out: BTK inhibition (%)
# BTK, sequence (Q06187 402-655 limits assumed): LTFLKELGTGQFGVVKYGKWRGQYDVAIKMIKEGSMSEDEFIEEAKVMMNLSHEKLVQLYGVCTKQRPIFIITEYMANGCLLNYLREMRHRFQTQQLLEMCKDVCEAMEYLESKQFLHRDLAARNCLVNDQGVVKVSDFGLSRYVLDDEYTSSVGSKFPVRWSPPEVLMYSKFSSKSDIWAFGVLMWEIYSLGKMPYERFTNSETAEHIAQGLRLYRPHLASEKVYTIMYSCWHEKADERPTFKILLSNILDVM
row,SMILES,inhibition at 10 µM [%]
1,CCOP(=O)(OCC)C(=Cc1cc(C(C)(C)C)c(O)c(C(C)(C)C)c1)P(=O)(OCC)OCC [PCM-0215676],-11.6

# Same assay, conditions: read-out: BTK inhibition (%), 0.75 uM BTK, […] probe 3l, 15 min preincubation
row,SMILES,inhibition at 10 µM [%]
1,Cc1cccc(Oc2cnc(=O)[nH]c2)c1 [PCM-0215674],-17
2,CCCc1cc(-c2nc(-c3ccc(C)cc3)cs2)ccn1 [PCM-0215677],6.9
3,CC(=O)Nc1nc(-c2cccc(NS(=O)(=O)c3cccc4c(N(C)C)cccc34)c2)cs1 [PCM-0215679],97.3
4,CC[C@H](C)[C@H](NC(=O)[C@H]([C@@H](C)CC)N(C)C(C)=O)C(=O)N[C@H](C(=O)N[C@@H](CC(C)C)C(=O)[C@@]1(C)CO1)[C@@H](C)O [PCM-0215680],23.9
5,O=C1C2CCN(CC2)C1(CO)CO [PCM-0215683],0.8
6,O=S(=O)(O)c1ccc2cc(N=Nc3cc(S(=O)(=O)O)c4cccnc4c3O)ccc2c1 [PCM-0215685],54.1
7,OC[C@H]1O[C@@H](O[C@H]2[C@H](O)[C@@H](O)C(O)O[C@@H]2CO)[C@H](O)[C@@H](O)[C@@H]1O (some centres unmarked) [PCM-0215689],-3.4
8,N[C@@H](CCC(=O)O)C(=O)O [PCM-0215690],10.2
9,CCOC(=O)/C=C\C(=O)OCC [PCM-0215691],10.1
10,O=C(Nc1nccs1)C(c1cc(F)ccc1O)N1Cc2ccccc2C1=O (centres unmarked) [PCM-0215692],13.8
11,CC(C)=CC[C@@H](O)C1=CC(=O)c2c(O)ccc(O)c2C1=O [PCM-0215694],69.7
12,O=C(O)CCN1C(=O)/C(=C/c2ccc(-c3ccc([N+](=O)[O-])cc3)o2)SC1=S [PCM-0215696],59.5
13,Cn1c(=O)cc(C(=O)Nc2ccc3c(c2)OCCO3)c2ccccc21 [PCM-0215702],-3.9
14,Cc1cc2c3c([n+](C)c4ccc(F)cc4c3c1)-c1cc(F)ccc1N2C [PCM-0215703],13.1
15,COc1cc2ncnc(Nc3ccc(Oc4ccccc4)cc3C)c2cc1OC [PCM-0215704],110
16,O=[N+]([O-])c1ccc(Sc2cccc[n+]2[O-])c2nonc12 [PCM-0215705],73.4
17,OCCOCCN1CCN(Cc2cccc(Oc3ccccc3)c2)CC1 [PCM-0215707],13.1
18,CNCC(=O)O [PCM-0215710],-11.1
19,O=C(O)C(O)C(O)C(=O)O (centres unmarked) [PCM-0215711],-0.9
20,CC(C)OC(=O)CCC/C=C\C[C@@H]1[C@@H](CC[C@@H](O)CCc2ccccc2)[C@H](O)C[C@@H]1O [PCM-0215712],-13.1

# The next lines start with the values.
row,inhibition at 10 µM [%],SMILES
1,-11,CO[C@@H](C)Cn1c(=O)n(C)c2cnc3ccc(-c4cncc(C(C)(C)O)c4)cc3c21 [PCM-0215675]
2,87.6,CCn1c(=O)c(-c2ccc(Cl)cc2Cl)cc2cnc(Nc3ccc(N4CCNCC4)c(F)c3)nc21 [PCM-0215684]
3,37.8,COc1cc2c(cc1OC)CN(C(=O)/C=C/c1c(-c3ccccc3)n(C)c3ncccc13)CC2 [PCM-0215686]
4,-17,Cn1c(-c2ccccc2C(F)(F)F)nnc1C12CCC(c3noc(C4CC(F)(F)C4)n3)(CC1)CC2 [PCM-0215687]
5,17,CCCCOc1nc(N)c2c(n1)N(Cc1cccc(CN3CCCC3)c1)CC(=O)N2 [PCM-0215695]
6,9.7,CCn1nc(C2CCN(C(=O)CCO)CC2)nc1-c1cnc(N)c(-c2nnc(C(C)(C)C)o2)n1 [PCM-0215697]
7,7.7,COc1ccc(Cn2c3ncnc4c(ncn4Cc4ccc(OC)cc4)c-3nc2=O)cc1 [PCM-0215699]
8,-12.4,CC(C)(C)NC(=O)c1cncn1C1CCN(c2ccc(-c3nnc(C(F)(F)F)o3)cn2)CC1 [PCM-0215700]
9,-9,O=C(Nc1cnn2ccc(N3CCC[C@@H]3c3cc(F)ccc3F)nc12)N1CC[C@H](O)C1 [PCM-0215701]
10,3.4,CCn1c(C(=O)N(C2CC2)C2CC2)cc2c3c(ncn3C)c(Nc3cc(C)n(C)n3)nc21 [PCM-0215708]
11,27,Cc1cn(CCN2CCN(c3ccccc3-c3cc(C#N)cc(C(=O)NCCCN4CCCC4)c3)CC2)c2ccccc12 [PCM-0215709]
